Measurements: patent US20210355106A1, “NEW AMINO-PYRIMIDONYL-PIPERIDINYL DERIVATIVES, A PROCESS FOR THEIR PREPARATION AND PHARMACEUTICAL COMPOSITIONS CONTAINING THEM” (LES LABORATOIRES SERVIER, priority 2018, published 2021)
Counter-ions that a name gives are not always drawn.

What was measured:
USP7 = target: T1, USP7 (Homo sapiens, UniProt Q93009, C315A); test: Inhibition of USP7 by Fluorescence Intensity (FLINT) readings, Ubiquitin-Rhodamine-110 substrate; type: biochemical; details: 0.25 nM His-His-USP7 (aa208-560), 60 minutes at 30° C. preincubation; Ki determined from IC50 according to Cer et al.
T1 construct: 0.25 nM His-His-USP7 (aa208-560, |C315A|) was incubated with compound; His-His (N)
T1 sequence (Q93009 208-560 C315A): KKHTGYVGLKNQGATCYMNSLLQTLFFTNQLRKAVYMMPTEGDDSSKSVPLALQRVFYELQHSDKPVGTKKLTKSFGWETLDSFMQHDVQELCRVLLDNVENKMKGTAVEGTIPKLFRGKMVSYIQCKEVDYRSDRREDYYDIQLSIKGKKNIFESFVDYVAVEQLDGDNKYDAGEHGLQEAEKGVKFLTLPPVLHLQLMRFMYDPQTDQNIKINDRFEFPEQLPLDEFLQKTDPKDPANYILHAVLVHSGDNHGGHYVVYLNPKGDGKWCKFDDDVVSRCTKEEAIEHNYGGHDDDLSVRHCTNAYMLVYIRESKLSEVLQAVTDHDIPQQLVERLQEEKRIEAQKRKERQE
Experimental: USP7 activity was measured using Rhodamine-110 c-terminal labelled Ubiquitin as a substrate (UbiQ Bio), Incubation with USP7 results in the release of Rhodamine-110 leading to an increase in fluorescence which can be used in the continuous measurement of USP7 activity.
The USP7 reactions were performed in a 50 μL volume, in 384 well black solid low binding plates (Corning #3575). The reaction buffer consisted of 100 mM Bicine pH 8.0, 0.01% TritonX 100, 1 mM TCEP, and 10% DMSO.
0.25 nM His-His-USP7 (aa208-560, |C315A|) was incubated with compound (final concentration 10% DMSO) for 60 minutes at 30° C. The reaction was then initiated by the addition of 50) nM Ubiquitin-Rhodamine-110 substrate or 4 μM Ubiquitin-Rhodamine-110 substrate and the plate read every 3 minutes for 21 minutes to measure the release of Rhodamine-110. Fluorescence Intensity (FLINT) readings were measured using a Biomek Neo plate reader (Ex.485 nm, Em.535 nm).
The inhibition of increasing doses of compound was expressed as a percentage reduction in kinetic rate compared to the kinetic rates established between ‘DMSO only’ and ‘total inhibition’ controls (no USP7). The inhibitory concentrations that gave a 50% reduction in kinetic rate (IC50) were determined, from 11-point dose response curves, in XL-Fit using a 4-Parameter Logistic Model 205 (Sigmoidal Dose-Response Model). The K, values were determined from the IC50 values according to Cer et al. Nucleic Acids Res. 2009, July 1; 37 (WebServer issue): W441-W445.

[1] = test system: Z138 mantle cell lymphoma tumour cell lines; test: In vitro cytotoxicity, MTT assay; type: cell-based; details: Homo sapiens, Z-138; Z138 cells, exposed to the test compounds for 96 hours
Experimental: The cytotoxicity studies were evaluated by MTT [3-(4,5-dimethylthiaxol-2-yl)-2,5-diphenyltetrazolium bromide|assay and carried out on Z138 mantle cell lymphoma tumour cell lines. The cells are distributed onto microplates and exposed to the test compounds for 96 hours. MTT is then added for 4 hours and converted by NAD(P)H-dependent cellular oxidoreductase enzymes in forma/an, which has a purple color. The viable cell number is proportional to the production of formazan salts and cell viability can be quantified by the absorbance of the solution at 540 nm with a spectrophotometer (Carmichael et al., Cancer Res. 1987, 47, 936-942).

Compound	Ki (USP7) [nM]	IC50 [1] [nM]
Cc1ccc(-c2ncc(CN3CC[C@@H](C(=O)N4CC[C@](O)(Cn5cnc(Oc6ccc(F)cc6)c(N)c5=O)C(F)(F)C4)[C@H](c4ccccc4)C3)s2)cn1 [Example 53]	6.6	3.4
Cc1ncc(-c2nc(C)c(C(=O)N3CC[C@@H](C(=O)N4CC[C@](O)(Cn5cnc(Oc6ccc(F)cc6)c(N)c5=O)C(F)(F)C4)[C@H](c4ccccc4)C3)s2)cc1C(F)(F)F [Example 185, 5-amino-3-[[(4S)-3,3-difluoro-4-hydroxy-1-[(3R,4R)-1-[4-methyl-2-[6-methyl-5-(trifluoromethyl)-3-pyridyl]thiazole-5-carbonyl]-3-phenyl-piperidine-4-carbonyl]-4-piperidyl]methyl]-6-(4-fluorophenoxy)pyrimidin-4-one]	13	7.65
Cc1ccnc(CN2CC[C@@H](C(=O)N3CC[C@](O)(Cn4cnc(Oc5ccc(F)cc5)c(N)c4=O)C(F)(F)C3)[C@H](c3ccccc3)C2)n1 [Example 205]	35.8	23.5
Nc1c(Oc2ccc(F)cc2)ncn(C[C@@]2(O)CCN(C(=O)[C@@H]3CCN(Cc4ccnc(Cl)n4)C[C@H]3c3ccccc3)CC2(F)F)c1=O [Example 160]	16.9	6.47
Cc1nc(C2CCCCC2)sc1C(=O)N1CC[C@@H](C(=O)N2CCC(O)(Cn3cnc(Oc4ccc(F)cc4)c(N)c3=O)CC2)[C@H](c2ccccc2)C1 [Example 158]	10.7	5.24
Nc1c(Oc2ccc(F)cc2)ncn(C[C@@]2(O)CCN(C(=O)[C@@H]3CCNC[C@H]3c3ccccc3)CC2(F)F)c1=O [Example 11, 5-amino-3-[[(4S)-3,3-difluoro-4-hydroxy-1-[(3R,4R)-3-phenylpiperidine-4-carbonyl]-4-piperidyl]methyl]-6-(4-fluorophenoxy)pyrimidin-4-one]	99.4	390
Cc1nc(-c2ccc(F)cc2)sc1C(=O)N1CC[C@@H](C(=O)N2CC[C@](O)(Cn3cnc(Oc4ccc(F)cc4)c(N)c3=O)C(F)(F)C2)[C@H](c2ccccc2)C1 [Example 44]	18.1	7.4
Cc1ccc(-c2sc(C(=O)N3CC[C@@H](C(=O)N4CCC(O)(Cn5cnc(Oc6ccc(F)cc6)c(N)c5=O)CC4)[C@H](c4ccccc4)C3)c3c2OCCO3)cn1 [Example 68, 5-amino-6-(4-fluorophenoxy)-3-[(4-hydroxy-1-{(3R,4R)-1-[7-(6-methylpyridin-3-yl)-2,3-dihydrothieno[3,4-b][1,4]dioxine-5-carbonyl]-3-phenylpiperidine-4-carbonyl]piperidin-4-yl)methyl]pyrimidin-4(3H)-one]	4	6.67
Nc1c(Oc2ccc(F)cc2)ncn(CC2(O)CCN(C(=O)[C@@H]3CCN(C(=O)NCc4ccccc4)C[C@H]3c3ccccc3)CC2)c1=O [Example 79, (3R,4R)-4-[4-[[5-amino-4-(4-fluorophenoxy)-6-oxo-pyrimidin-1-yl]methyl]-4-hydroxy-piperidine-1-carbonyl]-N-benzyl-3-phenyl-piperidine-1-carboxamide]	121	
CC(C)(O)CN1CC[C@@H](C(=O)N2CCC(O)(Cn3cnc(Oc4ccc(F)cc4)c(N)c3=O)CC2)[C@H](c2ccccc2)C1 [Example 73, 5-amino-6-(4-fluorophenoxy)-3-[[4-hydroxy-1-[(3R,4R)-1-(2-hydroxy-2-methyl-propyl)-3-phenyl-piperidine-4-carbonyl]-4-piperidyl]methyl]pyrimidin-4-one]	326	
Nc1c(Oc2cccnc2)ncn(CC2(O)CCN(C(=O)[C@@H]3CCNC[C@H]3c3ccccc3)CC2)c1=O [Example 151, 5-amino-3-[[4-hydroxy-1-[(3R,4R)-3-phenylpiperidine-4-carbonyl]-4-piperidyl]methyl]-6-(3-pyridyloxy)pyrimidin-4-one, hydrochloride]	214	
Cc1ccc(-c2cccc(C(=O)N3CC[C@@H](C(=O)N4CCC(O)(Cn5cnc(Oc6ccc(F)cc6)c(N)c5=O)CC4)[C@H](c4ccccc4)C3)c2)cn1 [Example 32]	4.6	
Nc1c(Oc2ccc(F)cc2)ncn(C[C@@]2(O)CCN(C(=O)[C@@H]3CCN(C(=O)C4CC(c5ccccc5)C4)C[C@H]3c3ccccc3)CC2(F)F)c1=O (single isomer, unassigned) [Example 71]	112	
Nc1c(Oc2cccc(C(F)(F)F)c2)ncn(CC2(O)CCN(C(=O)[C@@H]3CCNC[C@H]3c3ccccc3)CC2)c1=O [Example 18, 5-amino-3-[[4-hydroxy-1-[(3R,4R)-3-phenylpiperidine-4-carbonyl]-4-piperidyl]methyl]-6-[3-(trifluoromethyl)phenoxy]pyrimidin-4-one hydrochloride]	329	
CC1(N2CC[C@@H](C(=O)N3CCC(O)(Cn4cnc(Oc5ccc(F)cc5)c(N)c4=O)CC3)[C@H](c3ccccc3)C2)COC1 [Example 111, 5-amino-6-(4-fluorophenoxy)-3-[[4-hydroxy-1-[(3R,4R)-1-(3-methyloxetan-3-yl)-3-phenyl-piperidine-4-carbonyl]-4-piperidyl]methyl]pyrimidin-4-one]	312	
CC(C)(C)OC(=O)N1CC[C@@H](C(=O)N2CCC(O)(Cn3cnc(Oc4cccnc4)c(N)c3=O)CC2)[C@H](c2ccccc2)C1 [Example 137, tert-butyl (3R,4R)-4-[4-[[5-amino-6-oxo-4-(3-pyridyloxy)pyrimidin-1-yl]methyl]-4-hydroxy-piperidine-1-carbonyl]-3-phenyl-piperidine-1-carboxylate]	226	
Nc1c(Oc2ccc(F)cc2)ncn(CC2(O)CCN(C(=O)[C@@H]3CCN(C4(c5cccc(Br)c5)COC4)C[C@H]3c3ccccc3)CC2)c1=O [Example 170, 5-amino-3-[[1-[(3R,4R)-1-[3-(3-bromophenyl)oxetan-3-yl]-3-phenyl-piperidine-4-carbonyl]-4-hydroxy-4-piperidyl]methyl]-6-(4-fluorophenoxy)pyrimidin-4-one]	78.5	
Nc1c(Oc2ccc(F)cc2)ncn(CC2(O)CCN(C(=O)[C@@H]3CCN(S(=O)(=O)c4ccc(-c5cccs5)s4)C[C@H]3c3ccccc3)CC2)c1=O [Example 118, 5-amino-6-(4-fluorophenoxy)-3-[[4-hydroxy-1-[(3R,4R)-3-phenyl-[[5-(2thienyl)-2-thienyl]sulfonyl]piperidine-4-carbonyl]-4-piperidyl]methyl]pyrimidin-4-one]	123	
Cc1nc(-c2cccs2)sc1C(=O)N1CC[C@@H](C(=O)N2CCC(O)(Cn3cnc(Oc4ccc(F)cc4)c(N)c3=O)CC2)[C@H](c2ccccc2)C1 [Example 150, 5-amino-6-(4-fluorophenoxy)-3-[[4-hydroxy-1-[(3R,4R)-1-[4-methyl-2-(2-thienyl)thiazole-5-carbonyl]-3-phenyl-piperidine-4-carbonyl]-4-piperidyl]methyl]pyrimidin-4-one]	21.9	
Nc1c(Oc2ccc(F)cc2)ncn(CC2(O)CCN(C(=O)[C@@H]3CCN(C(=O)Nc4nc(C(F)(F)F)cs4)C[C@H]3c3ccccc3)CC2)c1=O [Example 88, (3R,4R)-4-[4-[[5-amino-4-(4-fluorophenoxy)-6-oxo-pyrimidin-1-yl]methyl]-4-hydroxy-piperidine-1-carbonyl]-3-phenyl-N-[4-(trifluoromethyl)thiazol-2-yl]piperidine-1-carboxamide]	187	
CC1(N2CC[C@@H](C(=O)N3CCC(O)(Cn4cnc(Oc5ccccc5)c(N)c4=O)CC3)[C@H](c3ccccc3)C2)COC1 [Example 113, 5-amino-3-[[4-hydroxy-1-[(3R,4R)-1-(3-methyloxetan-3-yl)-3-phenyl-piperidine-4-carbonyl]-4-piperidyl]methyl]-6-phenoxy-pyrimidin-4-one]	30.6	
Nc1c(Oc2ccccc2)ncn(CC2(O)CCN(C(=O)[C@@H]3CCNC[C@H]3c3ccccc3)CC2)c1=O [Example 20, 5-amino-3-[4-hydroxy-1-[(3R,4R)N-phenylpiperidine-4-carbonyl-4-piperidyl]methyl]-6-phenoxy-pyrimidin-4-one]	112	
Nc1c(Oc2ccc(F)cc2)ncn(CC2(O)CCN(C(=O)[C@@H]3CCN(C(=O)c4ccc5c(c4)C(=O)C(=O)N5)C[C@H]3c3ccccc3)CC2)c1=O [Example 58, 5-[(3R,4R)-4-[4-[[5-amino-4-(4-fluorophenoxy)-6-oxo-pyrimidin-1-yl]methyl]-4-hydroxy-piperidine-1-carbonyl]-3-phenyl-piperidine-1-carbonyl]indoline-2,3-dione]	6.51	
